{"source": "patent US20250250582A1", "about": "“Plant Cells and Plants Modified to Increase Herbicide Resistance and Stress Tolerance and Methods of Using the Same” (The Board of Trustees of the University of Arkansas, priority 2018, published 2025)", "key": {"[1]": {"test_system": "susceptible E. colona (ECO-S)", "assay": "RNA-sequencing differential gene expression, herbicide-treated vs nontreated ECO-S", "conditions": "ECO-S-T vs ECO-S-N, 24 h", "source_text": "(§1) Pure-line generated seed of each accession were germinated in pots containing potting soil within a temperature/light controlled growth chamber set to a 14-hr day length, 33 C day temperature, and 24 C night time to simulate environmental conditions early in the rice growing season. A single plant was maintained in each of the pots and used for the treatments; two pots were used as individual biological replicates. […] Pots for each of the respective treatments were labeled as either ECO-R/S-T for the treated samples and ECO-R/S-N for the non-treated counterpart. To minimize the effect that the sprayer may play in the application, both plants of the ECO-R and ECO-S were treated at the same time. After approximately 30 minutes, allowing for the plants to dry, the treated and non-treated plants of both accessions were moved back into the growth chamber. Precisely 24-hours after application, the aboveground portion of each of the plants were removed and immediately frozen in liquid nitrogen to cease all biological function. Samples were then transferred to RNAlater™-ICE (Invitrogen, Carlsbad CA, USA) for shipment to the Clemson University Genomics Institute (CUGI), in Clemson, South Carolina.\n(§2) RNA was extracted from the young leaf tissues of both replications for the ECO-R and ECO-S, T and N samples, at Clemson University. Total RNA was extracted with a kit according to the manufactures instructions. The extracted RNA was treated with DNase (Invitrogen, Calsbad, CA, USA) to remove any DNA contamination prior to further processing. The samples were prepared for sequencing by CUGI. For library preparation, the TruSeq Stranded Total RNA kit (Illumina Inc., San Diego, CA, USA) was used according to the instructions provided by the manufacturer to produce a paired-end library for sequencing. Ribosomal RNA was removed using target-specific oligonucleotides paired with rRNA removal beads, removing all cytoplasmic and mitochondrial rRNA that may result in poor quality results. RNA was fragmented and reverse transcribed to cDNA using random primers, followed by a second strand cDNA synthesis. Each fragment is then ligated with an additional ‘A’ and an adapter for sequencing. The PCR enriched product is then used to create the final cDNA library. All samples were sequenced on an Illumina Hiseq 2500 platform housed in the Holdings Cancer Center at the Medical University of South Carolina, Charleston, SC, USA. Samples, regardless of treatments or replication were ran across three lanes to reduce sequencing errors from the equipment. The resulting data were processed by CUGI.\n(§3) A de novo transcriptome was assembled from the treatments described for this experiment as well as several treatments, which included herbicides profiled in ECO-R. The treatments were applied to both ECO-R and ECO-S samples with two replications as described previously. In total, 20 individual plants, from both the ECO-R and ECO-S accessions, as well as T and NT samples, were used for the assembly. The transcriptome was assembled using the Trinity RNA-Seq pipeline (Broad Institute, Cambridge, MA, USA). Raw data were assessed for quality using FastQC (Babraham Institute, Cambridge, UK) and then processed to remove adapter sequences and low quality bases using a sliding window method. The processed data were then rerun using FastQC to ensure high quality reads. Using the TrinityRNASeq 2.2.0 software, the samples were normalized, by replication, using a coverage size of 100 and kmer of 32. The normalized reads were then assembled as transcripts and genes using Trinity with the stranded library set as the default."}, "[2]": {"test_system": "susceptible E. colona standard", "assay": "Determination of resistance level (visual injury), susceptible plants", "conditions": "2 X dose, visual 3 wk after treatment"}, "[3]": {"test_system": "ECO-R compared to ECO-S after herbicide treatment", "assay": "RNA-sequencing differential gene expression, ECO-R-T compared to ECO-S-T", "conditions": "ECO-R-T vs ECO-S-T, 24 h", "source_text": "as §1, §2, §3"}, "[4]": {"test_system": "multiple-resistant E. colona (ECO-R)", "assay": "RNA-sequencing differential gene expression, herbicide-treated vs nontreated ECO-R", "conditions": "ECO-R-T vs ECO-R-N, 24 h", "source_text": "as §1, §2, §3"}, "[5]": {"test_system": "resistant Echinochloa species", "assay": "Determination of resistance level (visual injury), resistant accessions", "type": "in vivo, E. colona and E. crus-galli", "conditions": "2 X dose, visual 3 wk after treatment; propanil range excludes ECO187", "source_text": "The experiment was repeated once."}, "[6]": {"test_system": "multiple-resistant E. colona (ECO-R)", "assay": "Herbicide resistance profile of ECO-R", "type": "in vivo, Echinochloa colona", "conditions": "data not shown", "source_text": "Beginning in 2010, through the 2016 cropping cycle, Echinochloa spp. from throughout the rice producing counties of Arkansas, USA, located along the Mississippi River were sampled for a survey of the current status of herbicide resistance. Seeds were bulk sampled from plants that had matured in rice and soybean production fields, which had survived at least one herbicide application, were collected and sent to the University of Arkansas Altheimer Laboratory in Fayetteville for characterization and evaluation of herbicide resistance to common rice herbicides. […] From this screening program, two populations of E. colona were selected for use in this experiment. […] To establish inbred and homozygous accessions for the experiment, a single plant, verified as resistant/susceptible of ECO-R and ECO-S were grown in isolation to produce seed for further experiments.\nAccession source and population profiling. From 2010 to 2016, the University of Arkansas weed physiology group has been collecting putative herbicide-resistant Echinochloa populations from rice production fields throughout the state of Arkansas. […] Collections took place in the late summer to early fall prior to rice harvest; these accessions were bulk sampled by in-field location and farm, with field histories collected when possible. All of the samples were submitted to the University of Arkansas Altheimer Laboratory for assessment of their resistance profile and characterized according to their species. […] Populations with unique profiles and of interest for further research were then grown in isolation to produce pureline seed. […] Another accession, E. colona susceptible (ECO-S), was also selected and grown in isolation. This accession was selected because of its similar cropping history and geographic location, as well as its high level of susceptibility to the herbicides of interest."}}, "note": "Values joined by “and” are separate entries in the source; they are usually repeats but may differ in a detail not shown here. Equal values may be shown once.", "data": [{"smiles": "O=C(O)c1c(Cl)ccc2cc(Cl)cnc12", "note": "[quinclorac]", "values": [{"measurement": "ABCB5 fold change", "setting": "[1]", "result": "−6.5", "unit": "fold"}, {"measurement": "ABCC10 fold change", "setting": "[1]", "result": "−6.1", "unit": "fold"}, {"measurement": "ACC oxidase 1 fold change (two forms)", "setting": "[1]", "result": "2.2 fold and 2.8 fold"}, {"measurement": "ACC oxidase fold change", "setting": "[1]", "result": "−2.8", "unit": "fold"}, {"measurement": "ACC oxidase homolog 3 fold change", "setting": "[1]", "result": "−2.2", "unit": "fold"}, {"measurement": "ACC synthase fold change", "setting": "[1]", "result": "−2.7", "unit": "fold"}, {"measurement": "ALPL1 fold change, five repressed transcripts", "setting": "[1]", "result": "−12 to −1.4", "unit": "fold"}, {"measurement": "EIN2 fold change", "setting": "[1]", "result": 3.9, "unit": "fold"}, {"measurement": "RAP2-2 fold change", "setting": "[1]", "result": 1.9, "unit": "fold"}, {"measurement": "VP14 (9-cis-epoxycarotenoid dioxygenase) fold change", "setting": "[1]", "result": "−6.4", "unit": "fold"}, {"measurement": "ALPL1 fold change, three induced transcripts", "setting": "[1]; as much as", "result": "≤ 3.5", "unit": "fold"}, {"measurement": "susceptible plants killed", "setting": "[2]", "result": 100, "unit": "%"}, {"measurement": "ABA receptor PYL5 fold change", "setting": "[3]", "result": "−4.4", "unit": "fold"}, {"measurement": "ACC synthase fold change", "setting": "[3]", "result": 9, "unit": "fold"}, {"measurement": "Alanine aminotransferase 2 Fold Change", "setting": "[3]", "result": 4, "unit": "fold"}, {"measurement": "Aspartate aminotransferase, chloroplastic Fold Change", "setting": "[3]", "result": 4, "unit": "fold"}, {"measurement": "Beta-amylase 1, chloroplastic Fold Change", "setting": "[3]", "result": 4, "unit": "fold"}, {"measurement": "Branched-chain-amino-acid aminotransferase 5, chloroplastic Fold Change", "setting": "[3]", "result": 4, "unit": "fold"}, {"measurement": "CYP71A1 Fold Change", "setting": "[3]", "result": "3 fold and 5 fold and 6 fold"}, {"measurement": "CYP71A4 Fold Change", "setting": "[3]", "result": "5.6 fold and 6 fold"}, {"measurement": "CYP71A8 Fold Change", "setting": "[3]", "result": 4, "unit": "fold"}, {"measurement": "CYP71A9 Fold Change", "setting": "[3]", "result": "−6", "unit": "fold"}, {"measurement": "CYP72A15 Fold Change", "setting": "[3]", "result": "−7", "unit": "fold"}, {"measurement": "CYP89A2 Fold Change", "setting": "[3]", "result": "−10", "unit": "fold"}, {"measurement": "CYP709B2 Fold Change", "setting": "[3]", "result": "6 fold and 7 fold and 11 fold"}, {"measurement": "Desumoylating isopeptidase 1 Fold Change", "setting": "[3]", "result": 4, "unit": "fold"}, {"measurement": "Fructose-bisphosphate aldolase, chloroplastic Fold Change", "setting": "[3]", "result": 4, "unit": "fold"}, {"measurement": "GSTU20 Fold Change", "setting": "[3]", "result": 6, "unit": "fold"}, {"measurement": "Haloacid dehalogenase-like hydrolase domain-containing protein 3 Fold Change", "setting": "[3]", "result": 4, "unit": "fold"}, {"measurement": "IAA-amino acid hydrolase ILR1-like 4 Fold Change", "setting": "[3]", "result": "−6", "unit": "fold"}, {"measurement": "Nudix hydrolase 21, chloroplastic Fold Change", "setting": "[3]", "result": "3 fold and 4 fold"}, {"measurement": "Probable xyloglucan endotransglucosylase/hydrolase protein 28 Fold Change", "setting": "[3]", "result": "−4", "unit": "fold"}, {"measurement": "Prolyl endopeptidase Fold Change", "setting": "[3]", "result": "8 fold and 9 fold and 15 fold"}, {"measurement": "Pyrimidine-specific ribonucleoside hydrolase RihA Fold Change", "setting": "[3]", "result": "−9", "unit": "fold"}, {"measurement": "Serine carboxypeptidase-like 42 Fold Change", "setting": "[3]", "result": "−5", "unit": "fold"}, {"measurement": "UGT73D1 fold change", "setting": "[3]", "result": 8, "unit": "fold"}, {"measurement": "UGT73E1 fold change", "setting": "[3]", "result": 5, "unit": "fold"}, {"measurement": "UGT74D1 Fold Change", "setting": "[3]", "result": "−4", "unit": "fold"}, {"measurement": "UGT75D1 fold change", "setting": "[3]", "result": "8.7 fold and 9 fold"}, {"measurement": "UGT88A1 Fold Change", "setting": "[3]", "result": 4, "unit": "fold"}, {"measurement": "ABCD2 fold change", "setting": "[4]", "result": "−9.2", "unit": "fold"}, {"measurement": "ACC synthase fold change", "setting": "[4]", "result": 6.3, "unit": "fold"}, {"measurement": "UGT73D1 fold change", "setting": "[4]", "result": 5.3, "unit": "fold"}, {"measurement": "UGT73E1 fold change", "setting": "[4]", "result": 2.6, "unit": "fold"}, {"measurement": "UGT75D1 fold change", "setting": "[4]", "result": "7.3 fold and ~9 fold"}, {"measurement": "cytochrome c oxidase proteins fold change", "setting": "[4]", "result": "−8.4", "unit": "fold"}, {"measurement": "ATP synthase subunit(s) fold change", "setting": "[4]; repressed", "result": "up to −12.3 fold"}, {"measurement": "acetyl-CoA and acetyl-CoA 2 proteins fold change", "setting": "[4]; repressed up to", "result": "up to −10.2 fold"}, {"measurement": "pyruvate dehydrogenase subunits fold change", "setting": "[4]; repressed up to", "result": "≤ −12", "unit": "fold"}, {"measurement": "injury of resistant Echinochloa species", "setting": "[5]", "result": "2-65%"}, {"measurement": "level of resistance", "setting": "[6]", "result": "> 32", "unit": "× field dose"}]}, {"smiles": "CP(=O)(O)CCC(N)C(=O)O", "note": "(stereo not shown) [glufosinate]", "values": [{"measurement": "glutamine synthetase (one form) fold change", "setting": "[4]; induced", "result": 7.5, "unit": "fold"}, {"measurement": "glutamine synthetase cytosolic isozyme 1-3 fold change", "setting": "[4]; induced", "result": 8.2, "unit": "fold"}, {"measurement": "level of resistance", "setting": "[6]", "result": "~2", "unit": "× field dose"}]}, {"smiles": "C[C@@H](Oc1ccc(Oc2ccc(C#N)cc2F)cc1)C(=O)O", "note": "[cyhalofop]", "values": [{"measurement": "level of resistance", "setting": "[6]", "result": "~2", "unit": "× field dose"}]}]}
